In the supplement of paper PMC10307832:

What was measured:
Assay in all cases: relative viability (nuclei count vs DMSO), 5 days (fraction); higher = more cells survive
Tipifarnib + Vorinostat = compound: Cn1cncc1[C@@](N)(c1ccc(Cl)cc1)c1ccc2c(c1)c(-c1cccc(Cl)c1)cc(=O)n2C [Tipifarnib] + O=C(CCCCCCC(=O)Nc1ccccc1)NO [Vorinostat] (partner 1 µM)
How it was run: (§1)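 Each reported value is a median over duplicate plates. It expresses relative viability: treated-well nuclei count divided by vehicle-well nuclei count. Lung cancer cell lines in 1536-well plates were dosed by pin tool a day after seeding, alone with one drug or with a fixed anchor-drug dose plus five library-drug doses (not always all listed) in √10 steps, and nuclei were counted after 5 days.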

Tipifarnib + Palbociclib = compound: Cn1cncc1[C@@](N)(c1ccc(Cl)cc1)c1ccc2c(c1)c(-c1cccc(Cl)c1)cc(=O)n2C [Tipifarnib] + CC(=O)c1c(C)c2cnc(Nc3ccc(N4CCNCC4)cn3)nc2n(C2CCCC2)c1=O [Palbociclib] (partner 0.5 µM)
How it was run: as §1

Tipifarnib + AZD7762 = compound: Cn1cncc1[C@@](N)(c1ccc(Cl)cc1)c1ccc2c(c1)c(-c1cccc(Cl)c1)cc(=O)n2C [Tipifarnib] + NC(=O)Nc1cc(-c2cccc(F)c2)sc1C(=O)N[C@H]1CCCNC1 [AZD7762] (partner 0.2 µM)
How it was run: as §1

Tipifarnib + Crizotinib = compound: Cn1cncc1[C@@](N)(c1ccc(Cl)cc1)c1ccc2c(c1)c(-c1cccc(Cl)c1)cc(=O)n2C [Tipifarnib] + C[C@@H](Oc1cc(-c2cnn(C3CCNCC3)c2)cnc1N)c1c(Cl)ccc(F)c1Cl [Crizotinib] (partner 1 µM)
How it was run: as §1

Cell Line | relative viability (Tipifarnib + Vorinostat; first compound 0.01 µM) | relative viability (Tipifarnib + Vorinostat; first compound 0.03162 µM) | relative viability (Tipifarnib + Vorinostat; first compound 0.1 µM) | relative viability (Tipifarnib + Vorinostat; first compound 0.3162 µM) | relative viability (Tipifarnib + Vorinostat; first compound 1 µM) | relative viability (Tipifarnib + Palbociclib; first compound 0.01 µM) | relative viability (Tipifarnib + Palbociclib; first compound 0.03162 µM) | relative viability (Tipifarnib + Palbociclib; first compound 0.1 µM) | relative viability (Tipifarnib + Palbociclib; first compound 0.3162 µM) | relative viability (Tipifarnib + Palbociclib; first compound 1 µM) | relative viability (Tipifarnib + AZD7762; first compound 0.01 µM) | relative viability (Tipifarnib + AZD7762; first compound 0.03162 µM) | relative viability (Tipifarnib + AZD7762; first compound 0.1 µM) | relative viability (Tipifarnib + AZD7762; first compound 0.3162 µM) | relative viability (Tipifarnib + AZD7762; first compound 1 µM) | relative viability (Tipifarnib + Crizotinib; first compound 0.01 µM) | relative viability (Tipifarnib + Crizotinib; first compound 0.03162 µM) | relative viability (Tipifarnib + Crizotinib; first compound 0.1 µM) | relative viability (Tipifarnib + Crizotinib; first compound 0.3162 µM) | relative viability (Tipifarnib + Crizotinib; first compound 1 µM)
HOP-62 | 0.624 | 0.186 | 0.335 | 0.243 | 0.203 | 0.425 | 0.33 | 0.268 | 0.188 | 0.191 | 0.573 | 0.169 | 0.196 | 0.152 | 0.261 | 0.726 | 0.528 | 0.303 | 0.35 | 0.448
LC-2-ad | 0.634 | 0.505 | 0.42 | 0.336 | 0.305 | 0.464 | 0.439 | 0.442 | 0.336 | 0.38 | 0.813 | 0.68 | 0.561 | 0.474 | 0.359 | 0.399 | 0.391 | 0.382 | 0.349 | 0.35
LCLC-97TM1 | 0.657 | 0.166 | 0.518 | 0.394 | 0.121 | 0.222 | 0.154 | 0.202 | 0.202 | 0.236 | 0.179 | 0.225 | 0.216 | 0.17 | 0.0822 | 0.329 | 0.295 | 0.244 | 0.227 | 0.15
LCLC-103H | 0.676 | 0.707 | 0.68 | 0.533 | 0.611 | 0.483 | 0.384 | 0.491 | 0.411 | 0.571 | 0.784 | 0.76 | 0.735 | 0.713 | 0.679 | 1.01 | 1.01 | 0.893 | 0.87 | 0.85
LK-2 | 0.262 | 0.237 | 0.244 | 0.193 | 0.168 | 0.586 | 0.543 | 0.481 | 0.474 | 0.42 | 0.769 | 0.357 | 0.256 | 0.17 | 0.104 | 0.231 | 0.217 | 0.238 | 0.209 | 0.222
LOU-NH91 | 0.897 | 0.53 | 0.749 | 0.747 | 0.458 | 0.494 | 0.516 | 0.592 | 0.541 | 0.58 | 0.715 | 0.685 | 0.636 | 0.625 | 0.503 | 0.741 | 0.752 | 0.695 | 0.619 | 0.646
LU99A | 0.389 | 0.385 | 0.327 | 0.271 | 0.277 | 0.359 | 0.349 | 0.264 | 0.216 | 0.237 | 0.277 | 0.272 | 0.255 | 0.182 | 0.224 | 0.5 | 0.407 | 0.353 | 0.337 | 0.34
LXF-289 | 0.775 | 0.755 | 0.665 | 0.59 | 0.332 | 0.615 | 0.586 | 0.591 | 0.549 | 0.565 | 1.08 | 1.12 | 1.08 | 0.941 | 0.347 | 0.769 | 0.759 | 0.715 | 0.694 | 0.64
NCI-H23 | 0.543 | 0.31 | 0.299 | 0.205 | 0.167 | 0.577 | 0.397 | 0.405 | 0.35 | 0.341 | 0.227 | 0.253 | 0.229 | 0.236 | 0.199 | 0.579 | 0.491 | 0.386 | 0.311 | 0.249
NCI-H322M | 0.869 | 0.991 | 0.813 | 0.863 | 0.725 | 0.521 | 0.548 | 0.515 | 0.459 | 0.508 | 0.561 | 0.591 | 0.553 | 0.474 | 0.442 | 0.874 | 0.854 | 0.79 | 0.463 | 0.587
NCI-H358 | 0.638 | 0.431 | 0.365 | 0.309 | 0.247 | 0.152 | 0.127 | 0.118 | 0.129 | 0.144 | 0.563 | 0.511 | 0.575 | 0.382 | 0.378 | 0.563 | 0.261 | 0.35 | 0.245 | 0.23
NCI-H441 | 1.08 | 0.724 | 0.68 | 0.431 | 0.44 | 0.197 | 0.161 | 0.188 | 0.144 | 0.164 | 1.21 | 0.904 | 0.938 | 0.723 | 0.598 | 0.723 | 0.465 | 0.492 | 0.346 | 0.277
NCI-H460 | 0.734 | 0.329 | 0.283 | 0.116 | 0.116 | 0.178 | 0.187 | 0.096 | 0.0611 | 0.0359 | 0.575 | 0.618 | 0.282 | 0.237 | 0.118 | 1.12 | 0.249 | 0.133 | 0.0704 | 0.0599
NCI-H647 | 0.321 | 0.326 | 0.352 | 0.157 | 0.13 | 0.406 | 0.288 | 0.297 | 0.159 | 0.138 | 0.405 | 0.48 | 0.308 | 0.116 | 0.0944 | 0.76 | 0.618 | 0.515 | 0.367 | 0.521
NCI-H1648 | 0.356 | 0.394 | 0.419 | 0.384 | 0.372 | 0.253 | 0.304 | 0.279 | 0.285 | 0.45 | 0.625 | 0.535 | 0.681 | 0.551 | 0.341 |  |  |  |  | 
NCI-H1793 | 0.635 | 0.643 | 0.737 | 0.404 | 0.292 | 0.29 | 0.258 | 0.228 | 0.213 | 0.233 | 0.605 | 0.426 | 0.379 | 0.302 | 0.2 |  |  |  |  | 
NCI-H2342 | 0.847 | 0.746 | 0.597 | 0.73 | 0.516 | 0.535 | 0.493 | 0.555 | 0.499 | 0.488 | 0.509 | 0.506 | 0.36 | 0.449 | 0.39 |  |  |  |  | 
